The values that follow come from ChEMBL document CHEMBL1201862, “PubChem BioAssay data set” (2004).

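All cell lines were grown in 96-well plates and treated with compound for 48 hours. GI50 = concentration required for 50% inhibition of growth.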 Activity calls are given as the source filed them. Cut-off read from the data, not from the text of the source: active = GI50 up to about 1.1 µM and inactive = higher.

Experiment in all cases: NCI-60 cell line screen, 48 h
Experiment [1] deals with NCI-H226.
In experiment [2] the test system is U-251.
Experiment [3] concerns SK-MEL-2.
Experiment [4] relates to K562.
Experiment [5] has as its system MCF7.
In experiment [6] the test system is SF-295.
Experiment [7] has as its system OVCAR-5.
Experiment [8] has as its system UO-31.
For experiment [9], the system named is SF-539.
Experiment [10] relates to SNB-19.
Experiment [11] relates to UACC-257.
Experiment [12] relates to NCI-H460.
The subject of experiment [13] is SN12C.
Experiment [14] deals with NCI-H522.
Experiment [15] deals with Malme-3M.
The test system of experiment [16] is COLO 205.
The test system of experiment [17] is HCT-116.
Experiment [18] deals with PC-3.
Experiment [19] has as its system SW-620.
For experiment [20], the system named is HL-60.

With `O=C(O)CCC(=O)c1ccc[nH]1`, the GI50 was 64 µM (inactive) in [1]; > 100 µM (inactive) in experiment [2]; > 100 µM (inactive) in experiment [3]; > 100 µM (inactive) in experiment [4]; > 100 µM (inactive) in [5]; > 100 µM (inactive) in experiment [6]. In addition, the GI50 was > 100 µM (inactive) in experiment [7]; > 100 µM (inactive) in experiment [8]; > 100 µM (inactive) in experiment [9]; > 100 µM (inactive) in experiment [10]; 94 µM (inactive) in experiment [11]; > 100 µM (inactive) in experiment [12]. Also, the GI50 is 6.56 µM (inactive) in experiment [13]; > 100 µM (inactive) in experiment [14]; > 100 µM (inactive) in experiment [15]; > 100 µM (inactive) in [16]; > 100 µM (inactive) in experiment [17]; > 100 µM (inactive) in experiment [18].

In the case of `Cc1ccccc1OC(C)C(=O)NN1C(=O)CSC1c1ccccc1` (stereo not given), the GI50 in [1] was 67.1 µM (inactive); in experiment [2] it was 96.4 µM (inactive); in [3], > 100 µM (inactive); in experiment [4] it was 14.7 µM (inactive); in experiment [5], 38.5 µM (inactive); in experiment [6], 56.2 µM (inactive). Also, the GI50 in [7] was > 100 µM (inactive); in experiment [8], 63.2 µM (inactive); in experiment [9] it was > 100 µM (inactive); in experiment [10], 67.6 µM (inactive); in experiment [11], 45.2 µM (inactive); in experiment [12], 93.5 µM (inactive). In addition, the GI50 in experiment [13] is > 100 µM (inactive); in experiment [14], 61.9 µM (inactive); in experiment [15] it was > 100 µM (inactive); in experiment [16] it was > 100 µM (inactive); in [19] it was > 100 µM (inactive); in experiment [17], 53.1 µM (inactive). In experiment [18], the GI50 is > 100 µM (inactive).

In the case of `C[C@]12CCC3=NCCN3C1=CC[C@@H]1[C@@H]2CC[C@@]2(C)[C@H]1CC[C@]2(C)O`, the GI50 was 39.5 µM (inactive) in experiment [1]; 87.3 µM (inactive) in experiment [2]; 50 µM (inactive) in experiment [3]; 34.7 µM (inactive) in [4]; 61.9 µM (inactive) in [5]; 20.7 µM (inactive) in experiment [6]. The GI50 was > 100 µM (inactive) in experiment [7]; 68.1 µM (inactive) in experiment [8]; 22.2 µM (inactive) in experiment [9]; > 100 µM (inactive) in experiment [10]; 24.4 µM (inactive) in experiment [11]; 38.3 µM (inactive) in [12]. Also, the GI50 in experiment [13] was > 100 µM (inactive); in experiment [14], 58.1 µM (inactive); in [15], 24.5 µM (inactive); in experiment [16], 25.8 µM (inactive); in experiment [19], 85.1 µM (inactive); in [17], 31 µM (inactive). For the same compound, the GI50 in [18] was 62.5 µM (inactive).

Regarding `CNC(=O)CCCNC(=O)CCCCC(=O)N(C)C`, the GI50 in experiment [2], in experiment [3], in [4], in [5], in experiment [6] and in experiment [7] was > 100 µM (inactive) in each case. Moreover, the GI50 in [8], in experiment [9], in experiment [10], in experiment [12], in experiment [13] and in [14] was > 100 µM (inactive) throughout. Further, the GI50 in experiment [15], in [16], in [19], in experiment [17] and in experiment [18] was > 100 µM (inactive) throughout.

For the compound `CCOc1c(Br)cc(Br)cc1C=C(C#N)C#N`, the GI50 was 0.69 µM (active) in experiment [1]; 3.52 µM (inactive) in experiment [2]; > 10 µM (inactive) in [3]; 1.16 µM (inactive) in [4]; 6.21 µM (inactive) in [5]; 7.53 µM (inactive) in experiment [6]. For the same compound, the GI50 is 3.36 µM (inactive) in experiment [9]; 5.73 µM (inactive) in [10]; > 10 µM (inactive) in [12]; 6.27 µM (inactive) in [13]; > 10 µM (inactive) in experiment [15]; > 10 µM (inactive) in experiment [16]. Also, the GI50 in [20] was 0.227 µM (active); in experiment [19], 2.23 µM (inactive); in experiment [17], 0.405 µM (active); in experiment [18] it was > 10 µM (inactive).

For the compound `CCC(=O)O[C@H]1CC[C@H]2[C@@H]3CCC4=C/C(=N/OC(=O)c5cccc6c(=O)c7ccccc7[nH]c56)CC[C@]4(C)[C@H]3CC[C@]12C`, the GI50 is 33.8 µM (inactive) in experiment [1]; 25.6 µM (inactive) in experiment [2]; 31.6 µM (inactive) in experiment [3]; 18 µM (inactive) in experiment [4]; 20.9 µM (inactive) in [5]; 29.9 µM (inactive) in experiment [6]. For the same compound, the GI50 is 33.7 µM (inactive) in [7]; 26.4 µM (inactive) in experiment [8]; 20.6 µM (inactive) in experiment [9]; 51.4 µM (inactive) in experiment [10]; 38.1 µM (inactive) in experiment [11]; 22.2 µM (inactive) in experiment [12]. Also, the GI50 in experiment [13] is 42.9 µM (inactive); in experiment [14], 18.6 µM (inactive); in experiment [16], 32.3 µM (inactive); in experiment [19], 32 µM (inactive); in [18] it was 26.9 µM (inactive).

For `COc1ccc2c(c1)C(=O)[C@@](Nc1ccc(C=O)cc1)(OC)[C@@](OC)(c1ccc([N+](=O)[O-])cc1)O2`, the GI50 was 6.12 µM (inactive) in experiment [1]; > 10 µM (inactive) in experiment [2]; > 10 µM (inactive) in [3]; > 10 µM (inactive) in [4]; > 10 µM (inactive) in experiment [5]; > 10 µM (inactive) in experiment [6]. Further, the GI50 in experiment [7], in experiment [8], in [9], in experiment [10], in [11] and in experiment [12] was > 10 µM (inactive) in each case. Besides, the GI50 in experiment [13], in experiment [15], in experiment [16], in experiment [20], in experiment [19] and in experiment [17] was > 10 µM (inactive) each time. Further, the GI50 in experiment [18] was 8.53 µM (inactive).

`CCCc1n[nH]c(=O)n1N1C(=O)C=CC1=O`: the GI50 in [2], in experiment [3], in experiment [4], in [5], in experiment [6] and in experiment [7] was > 100 µM (inactive) in each case. The GI50 in [9], in [11], in experiment [12], in experiment [13], in experiment [14] and in [15] was > 100 µM (inactive) in each case. Further, the GI50 in [16], in experiment [17] and in experiment [18] was > 100 µM (inactive) throughout.

For `N#CC1(C#N)NC(c2cccnc2)C(C#N)(C#N)NC1c1cccnc1` (stereo not given), the GI50 in experiment [1], in experiment [2], in experiment [3], in experiment [4], in experiment [5] and in experiment [6] was > 100 µM (inactive) in each case. For the same compound, the GI50 in [7], in [9], in experiment [11], in experiment [13], in experiment [15] and in experiment [16] was > 100 µM (inactive) each time. The GI50 in experiment [20], in experiment [19], in experiment [17] and in experiment [18] was > 100 µM (inactive) throughout.

As to `CSc1nc(=O)cnn1C`, the GI50 in [1], in [2], in experiment [3], in [4], in [5] and in experiment [6] was > 100 µM (inactive) in each case. For the same compound, the GI50 in [7], in experiment [8], in experiment [10], in experiment [11], in experiment [12] and in experiment [13] was > 100 µM (inactive) throughout. The GI50 in experiment [14], in [15], in experiment [16], in [19], in experiment [17] and in experiment [18] was > 100 µM (inactive) each time.

Consider `C1=C(CC2=C[P+](c3ccccc3)(c3ccccc3)C=C(c3ccccc3)O2)OC(c2ccccc2)=C[P+]1(c1ccccc1)c1ccccc1`, for which the GI50 in experiment [2] is 0.269 µM (active); in experiment [5], 0.392 µM (active); in [6] it was 0.566 µM (active); in experiment [7] it was 1.04 µM (active); in experiment [8], 1.56 µM (inactive); in experiment [9] it was 0.362 µM (active). The GI50 in [10] was 0.328 µM (active); in experiment [11], 0.352 µM (active); in experiment [12], 0.577 µM (active); in experiment [13], 0.339 µM (active); in [15], 0.248 µM (active); in experiment [16], 0.162 µM (active). The GI50 in experiment [20] was 0.188 µM (active); in experiment [19], 0.367 µM (active); in [17] it was 0.332 µM (active); in [18] it was 0.337 µM (active).
